Measurements: PMC12705620 (Frontiers in Pharmacology, 2025)
Values joined by “and” are separate entries in the source; they are usually repeats but may differ in a detail not shown here. Identical values can stand only once. Like-named read-outs stand apart in the source and are kept apart here.

Experiments:
[1] = test system: S. aureus LUH14616 (MRSA); test: Ex vivo human skin wound infection model; design: species or system Staphylococcus aureus; conditions: 0.5% (v/v) in 70% ethanol, positive control, 4 h, p < 0.001
From the text: Human skin from 3 donors was obtained via the Residual Tissue Biobank of the Red Cross Hospital (Beverwijk, Netherlands). The use of these coded, post-operative residual tissue samples was approved by patients through the informed opt-out-plus protocol of the Red Cross Hospital Skin ([Code-of-Conduct-for-Health-Research, 2022]) and processed for an ex vivo wound infection model as described ([Dijksteel et al., 2020]). The Wounded skin grafts were sectioned into approximately 1 cm^2 samples using a sterile scalpel and were decontaminated by immersion in 70% ethanol for 30 min, followed by three PBS washes. Samples were placed dermis-down and wound-side-up on stainless steel grids with central indentations, positioned in 12-well plates, and cultured at the air–liquid interface in DMEM at 37 °C and 5% CO2. To confine reagents to the wound area, a resin barrier (OpalDam; Ultradent) was applied to the wounded area and polymerized using a hand-held UV light (Valo X) for 10 s. The wounds were then topically infected with 10 µL of S. aureus LUH14616 suspension of 1 × 10^7 CFU/mL (final dose: 1 × 10^5 CFU/graft) in PBS for 1 h, followed by topical application of 10 µL of peptide solution for 4 h. Chlorhexidine (0.5% (v/v) in 70% ethanol; Entick B.V.) and PBS were used as positive and negative controls, respectively. After treatment, tissue samples were transferred to polypropylene vials containing 1 mL PBS supplemented with 0.025% (v/v) SPS and a 7 mm stainless steel bead. Homogenization was performed using a MagnaLyser System (Roche) with three 30-s cycles at 7,000 rpm, with 30 s of cooling on ice between cycles. Homogenates were 10-fold serially diluted in PBS, and 100 µL aliquots were plated on BA plates. CFUs were enumerated after overnight incubation at 37 °C.

[2] = test system: Staphylococcus aureus JAR060131; type: cell-based
Description: (§1) Bactericidal activity was assessed as previously described ([Breij et al., 2018]). Briefly, mid-logarithmic phase bacterial cultures were diluted in RPMI to 1 × 10^7 CFU/mL. For fungicidal assays, fungal cultures were prepared in RPMI supplemented with 1% glucose (Merck) and diluted to 2–5 × 10^5 CFU/mL. For each condition, 10 µL of the suspension was added to 90 µL of peptide-containing RPMI or RPMI supplemented with 50% (v/v) pooled human plasma (hereafter referred to as 50% plasma; final bacterial concentration 1 × 10^6 CFU/mL, final fungal concentration 2–5 × 10^4 CFU/mL. Human plasma from four healthy volunteers (Sanquin, Netherlands) was pooled, and stored at −20 °C until use. Peptides were tested similarly for fungicidal activity, after 18 h of incubation at 37 °C with shaking (120 rpm) under humidified conditions, bacterial and fungal survival was determined by plating 10 µL aliquots onto BA plates. Assays were performed in duplicate in round-bottom polypropylene microtiter plates (Costar) and repeated independently three times. Untreated controls included bacteria exposed to RPMI alone or RPMI with 50% plasma. Bactericidal and fungicidal activity was expressed as the lethal concentration 99.9% (LC99.9), defined as the lowest peptide concentration causing ≥99.9% reduction in numbers of CFU compared to the initial inoculum.

[3] = test system: S. aureus RN4220 (mCherry) in dTHP-1 macrophages; test: Intracellular bacterial killing in macrophages; type: cell-based, Staphylococcus aureus; conditions: 24 h pre-treatment at 1 µM and 2 µM, MOI 2, CFU after lysis, versus no treatment
Description: Human monocytes (THP-1; TIB-202; ATCC) were cultured in RPMI 1,640 medium (Gibco) supplemented with 10% FBS. For differentiation into macrophage-like cells (dTHP-1), THP-1 monocytes were seeded in 96-well plates at 3 × 10^4 cells/well (100 µL) in RPMI supplemented with 50 ng/mL phorbol 12-myristate 13-acetate (PMA; Sigma-Aldrich), and incubated for 48 h. The protocol for intracellular killing was adapted from Tang et al. ([Tang et al., 2015]) with modifications. After differentiation, dTHP-1 cells were pre-treated with one or 2 µM peptide solutions in fresh RPMI for 24 h. Subsequently peptides were removed by washing three times with PBS. An mCherry-expressing S. aureus strain, prepared as described in Section 5.2, was used. This strain is efficiently internalized by macrophages ([Cuypers et al., 2024]). Bacteria were added to dTHP-1 cells at a multiplicity of infection (MOI) of 2:1 and incubated for 45 min at 37 °C with 5% CO2 for phagocytosis. Extracellular bacteria were then removed by washing the wells three times with 60 µL PBS, followed by a final wash with 200 µL PBS.dTHP-1 cells were either lysed immediately to quantify the number of intracellular bacteria, after phagocytosis (T = 0 h) or were incubated for 24 h (T = 24 h) in RPMI supplemented with 10 μg/mL gentamicin (Sigma-Aldrich) to inhibit extracellular bacterial growth (in both peptide-treated and control dTHP-1 cells). Internalized bacteria were quantified after lysing the cells with 0.025% Triton X-100 in PBS for 15 min. Lysates were serially diluted (both at 0 h and 24 h) and plated onto BA for CFU enumeration to assess intracellular bacterial survival.

[4] = test system: HaCaT human keratinocytes; test: Cytotoxicity (WST-1 and LDH); type: cell-based
Description: (§2) Cells (5 × 10^5 cells/mL) were seeded in 96-well plates (100 μL/well; Thermo Scientific) and allowed to adhere for 24 h. After adhesion, monolayers were exposed to two-fold serial dilutions of the tetrameric and reference peptides (final concentrations: 60–0.05 µM) in fresh DMEM containing 2% (v/v) FBS, and incubated for 24 h at 37 °C in a humidified 5% CO2 atmosphere. Cell viability was assessed using the water-soluble tetrazolium salt (WST-1; Roche) assay, and membrane integrity was measured using the lactate dehydrogenase (LDH) release assay (Abcam), following manufacturer instructions. Absorbance was measured using the Synergy H1 microplate reader (Biotek). Results are expressed as percentages relative to untreated control (for WST-1) and positive lysis control (for LDH) and all experiments were performed in triplicate.

[5] = test system: human skin fibroblast cells (BJ); test: Cytotoxicity (WST-1 and LDH); type: cell-based
Description: as §2

[6] = test system: Acinetobacter baumannii RUH875; type: cell-based; conditions: 18 h, 37 °C, median of three independent experiments (Table 1)
Description: as §1

HaCaT keratinocytes = test: In vitro scratch wound assay; type: cell-based, human; conditions: 1 µM peptide (TGF-β 20 ng/mL); for Percentage of wound closure: 60 h (legend: 64 h)
Description: Cell migration following injury was assessed using an in vitro scratch assay with the IncuCyte wound maker tool (Sartorius). HaCaT keratinocytes were seeded in 96-well ImageLock plates (Sartorius) at 3 × 10^5 cells/well (100 µL) in DMEM supplemented with 10% FBS and incubated at 37 °C, 5% CO2 for 48 h, with medium change at 24 h, until confluence. Uniform scratches were introduced using the wound maker tool according to the manufacturer’s instructions. After wounding, wells were washed twice with 100 µL PBS to remove cell debris. Cells were then treated with 1 µM peptides in serum-free DMEM, to focus specifically on cell migration from the wound edges. The absence of serum minimizes interference with peptide activity. Transforming growth factor-beta (TGF-β; human; 20 ng/mL; Sigma-Aldrich) and 5% dimethyl sulfoxide (DMSO; Sigma-Aldrich) were used as positive and negative controls, respectively. Additional controls included serum-free DMEM (no-treatment control) and 50% (v/v) acetonitrile in Milli-Q water as solvent control. Wound closure was monitored using the IncuCyte S3 live-cell imaging system (Sartorius) with bright-field microscopy. Images were captured every 6 h for up to 60 h. Image analysis was performed using ImageJ software (version 1.53t, NIH, USA) with the “Wound Healing” plugin, as described by Suarez Arnedo et al. ([Suarez-Arnedo et al., 2020]). Quantitative parameters included wound width (µm), percent wound closure, and migration rate (µm/hour).

[7] = test system: TNF-α production by unstimulated dTHP-1 macrophages; test: TNFα induction by peptides alone in macrophages; type: cell-based, human; conditions: 2 µM peptide, 4 h, no endotoxin stimulation, versus unstimulated cells
Description: The endotoxin-neutralizing capacity of the peptides was assessed by measuring tumor necrosis factor-alpha (TNF-α) production by dTHP-1 macrophages. dTHP-1 macrophages were stimulated with either lipopolysaccharide (LPS; E. coli O111:B4; 5 ng/mL, Sigma-Aldrich) or UV-inactivated S. aureus JAR060131 (MOI 2; as described in Section 5.2), in the presence or absence of one or 2 µM peptides. Cells were cultured in serum-free RPMI and incubated for 4 h at 37 °C with 5% CO2. Positive controls consisted of cells stimulated with LPS or UV-S. aureus without peptide treatment (no treatment, NT), and unstimulated cells served as negative controls. After stimulation, cell supernatants were collected, and cytokine levels of TNF-α were quantified using human ELISA kits (R&D Systems, USA) according to the manufacturer’s instructions. Each condition was tested in triplicate.

human erythrocytes = test: Hemolytic activity; type: cell-based; conditions: 45 min
Description: Whole blood was collected from healthy volunteers after obtaining informed consent, using Vacuette EDTA tubes (Greiner Bio-One). […] For hemolytic assessment, 180 μL of the prepared erythrocyte suspension was mixed with 20 μL of serially diluted peptide solutions (ranging from 60 to 0.03 μM in PBS).

[8] = 24 h exposure, DMEM 2% FBS, concentration causing >30% membrane permeation, triplicate
[9] = 24 h exposure, WST-1, concentration causing <70% metabolic activity, triplicate

Compound: [H]/N=C(\N/C(=N/[H])NCCCCCCNC(=N)NC(=N)Nc1ccc(Cl)cc1)Nc1ccc(Cl)cc1 [Chlorhexidine, reference compound]
- Reduction of bacterial burden (CFU counts) [1]: significantly reduced bacterial burden

Compound: N=C(N)NCCC[C@H](NC(=O)[C@H](Cc1c[nH]c2ccccc12)NC(=O)[C@H](CCC(N)=O)NC(=O)[C@H](Cc1c[nH]c2ccccc12)NC(=O)[C@H](CCCNC(=N)N)NC(=O)[C@@H](N)CCCNC(=N)N)C(=O)NCC(CNC(=O)[C@H](CCCNC(=N)N)NC(=O)[C@H](Cc1c[nH]c2ccccc12)NC(=O)[C@H](CCC(N)=O)NC(=O)[C@H](Cc1c[nH]c2ccccc12)NC(=O)[C@H](CCCNC(=N)N)NC(=O)[C@@H](N)CCCNC(=N)N)OCC(=O)NCCCCCC(=O)N[C@@H](CSSC[C@H](NC(=O)CCCCCNC(=O)COC(CNC(=O)[C@H](CCCNC(=N)N)NC(=O)[C@H](Cc1c[nH]c2ccccc12)NC(=O)[C@H](CCC(N)=O)NC(=O)[C@H](Cc1c[nH]c2ccccc12)NC(=O)[C@H](CCCNC(=N)N)NC(=O)[C@@H](N)CCCNC(=N)N)CNC(=O)[C@H](CCCNC(=N)N)NC(=O)[C@H](Cc1c[nH]c2ccccc12)NC(=O)[C@H](CCC(N)=O)NC(=O)[C@H](Cc1c[nH]c2ccccc12)NC(=O)[C@H](CCCNC(=N)N)NC(=O)[C@@H](N)CCCNC(=N)N)C(N)=O)C(N)=O (some centres unmarked) [LBT-2]
- LC99.9 ([2]; JAR060131, 18 h): 0.47 µM

Compound: CC[C@H](C)[C@H](NC(=O)[C@H](CCCCN)NC(=O)[C@H](CCC(=O)O)NC(=O)[C@H](CCCCN)NC(=O)[C@H](CO)NC(=O)[C@H](CCCCN)NC(=O)[C@H](CCCNC(=N)N)NC(=O)[C@H](Cc1ccccc1)NC(=O)[C@H](Cc1ccccc1)NC(=O)[C@H](CC(=O)O)NC(=O)CNC(=O)[C@H](CC(C)C)NC(=O)[C@@H](N)CC(C)C)C(=O)NCC(=O)N[C@@H](CCCCN)C(=O)N[C@@H](CCC(=O)O)C(=O)N[C@@H](Cc1ccccc1)C(=O)N[C@@H](CCCCN)C(=O)N[C@@H](CCCNC(=N)N)C(=O)N[C@H](C(=O)N[C@H](C(=O)N[C@@H](CCC(N)=O)C(=O)N[C@@H](CCCNC(=N)N)C(=O)N[C@H](C(=O)N[C@@H](CCCCN)C(=O)N[C@@H](CC(=O)O)C(=O)N[C@@H](Cc1ccccc1)C(=O)N[C@@H](CC(C)C)C(=O)N[C@@H](CCCNC(=N)N)C(=O)N[C@@H](CC(N)=O)C(=O)N[C@@H](CC(C)C)C(=O)N[C@H](C(=O)N1CCC[C@H]1C(=O)N[C@@H](CCCNC(=N)N)C(=O)N[C@H](C(=O)N[C@@H](CCC(=O)O)C(=O)N[C@@H](CO)C(=O)O)[C@@H](C)O)C(C)C)[C@@H](C)CC)C(C)C)[C@@H](C)CC [LL-37, reference compound]
- Macrophage reduction of intracellular S. aureus burden 24 h post-phagocytosis [3]: significantly enhanced
- Cytotoxicity, LDH leakage [4, 8]: 15 µM
- Cytotoxicity, Metabolic activity [4, 9]: 15 µM
- Cytotoxicity threshold (tolerance), WST-1 and LDH ([4]; keratinocytes, 24 h): 15 µM
- Cytotoxicity, LDH leakage [5, 8]: 7.5 µM
- Cytotoxicity, Metabolic activity [5, 9]: 15 µM
- Cytotoxicity threshold (tolerance), WST-1 and LDH ([5]; fibroblasts, 24 h): 7.5 to 15 µM
- LC99.9 ([2]; 50% pooled human plasma in RPMI, 18 h, 37 °C, median of three independent experiments): 60 µM
- LC99.9 ([2]; RPMI, 18 h, 37 °C, 1 × 10^6 CFU/mL, median of three independent experiments): 1.88 µM
- LC99.9 ([6]; 50% pooled human plasma): > 120 µM and >120 µM
- LC99.9 ([6]; RPMI): >120 µM
- Percentage of wound closure (HaCaT keratinocytes; versus no treatment): significant wound closure
- TNFα induction by peptide alone [7]: minimal but significant
- Hemolysis at the highest concentration tested (human erythrocytes; 60 µM, human erythrocytes): non-hemolytic
- Hemolytic concentration (HC) < 30% (human erythrocytes; 1% human erythrocytes in PBS, 37 °C, absorbance 540 nm, 30% lysis threshold, peptides up to 60 µM, triplicate, single donor): >60 µM

Compound: TGF-β
- Percentage of wound closure (HaCaT keratinocytes; versus no treatment): near-complete wound closure
- Wound width reduction (HaCaT keratinocytes; serum-free DMEM, versus untreated control): highest wound width reduction
- Rate of cell migration (HaCaT keratinocytes; versus no treatment): faster wound closure
